From patent US9833495B2, “Oral treatment of inflammatory bowel disease” (Defensin Therapeutics ApS, priority 2011, dated 2017)

Test system: DSS-induced colitis in male C57BL/6 mice
Assay: 10-Day Dextran Sodium Sulphate (DSS)-induced colitis model in the mouse
Format: in vivo
Settings: for additional DAI score without change in body weight (only stool consistency and rectal bleeding): oral, 10-day treatment
Text: 10-Day Dextran Sodium Sulphate (DSS)-Induced Colitis Model in the Mouse
The aim of the following study was to determine the anti-inflammatory activity of human beta defensin 2 in an acute (10-days) model of inflammatory bowel disease (colitis) induced by oral dextran sodium sulphate (DSS) administration in the mouse.
Study design: animals were divided into 5 experimental groups. Each group consisted of 10 males: Group A: Treated with Control vehicle (PBS) p.o. twice daily. Group B: Treated with methylprednisolone (1 mg/kg p.o. twice daily). Group C: Treated with hBD2 (0.05 mg/kg p.o. twice daily). Group D: Treated with hBD2 (0.5 mg/kg p.o. daily). Group E: Treated with hBD2 (5 mg/kg p.o. […]). Animal allocation to all experimental groups was done in a randomized manner. A maximum of 5 mice were housed in each cage (as per Directive 86/609/EEC). All animals were weighed on their arrival at the laboratory and prior to the administration of the test items.
The control vehicle and hBD2 were administered orally with the use of a sterile cannula in a dosing volume of 10 ml/kg body weith. The animals of all groups received 2 doses daily (at 9.00 h and 17.00 h) of the corresponding test item (test, reference or vehicle) for 10 consecutive days (experimental days 1-10).
Colitis was induced in mice by supplementing their drinking water with DSS 2% for 7 days. On Day 1 all mice were weighed and marked according to their experimental groups. The drinking bottle of each cage was filled with the DSS solution, making sure all bottle lids were mounted properly and that none were congested. On Day 3 any remaining solution in the bottles was emptied and refilled with fresh DSS solution. This procedure was repeated again on Day 5. On Day 8 any remaining solution was discarded and replaced with autoclaved water. Animals were sacrificed 2 days later on Day 10.
Daily clinical assessment of DSS-treated animals was carried out, with the calculation of a validated clinical Disease Activity Index (DAI) ranging from 0 to 4 according to the following parameters: stool consistency, presence or absence of rectal bleeding and weight loss:
Bodyweight loss was calculated as the percent difference between the original bodyweight (Day 1) and the actual bodyweight on each experimental day (2-10). The appearance of diarrhoea is defined as mucus/faecal material adherent to anal fur. Rectal bleeding is defined as diarrhoea containing visible blood/mucus or gross rectal bleeding. The maximum score of the DAI each day is 12.
On day 10, two hours after the last administration of control vehicle, hBD2 or prednisolone, the animals were killed by an overdose of anaesthetic. Their colons were removed and their length and weight measured after exclusion of the caecum. Two sections (proximal and distal) of colon were taken from each animal and preserved in neutral buffered formalin for subsequent histological analysis (haematoxylin and eosin staining) according to the following scoring system:
Description Score: No changes observed (0). Minimal scattered mucosal inflammatory cell infiltrates, with or without minimal epithelial hyperplasia (1). Mild scattered to diffuse inflammatory cell infiltrates, sometimes extending into the submucosa and associated with erosions, with minimal to mild epithelial hyperplasia and minimal to mild mucin depletion from goblet cells (2). Mild to moderate inflammatory cell infiltrates that were sometimes transmural, often associated with ulceration, with moderate epithelial hyperplasia and mucin depletion (3). Marked inflammatory cell infiltrates that were often transmural and associated with ulceration, with marked epithelial hyperplasia and mucin depletion (4). Marked transmural inflammation with severe ulceration and loss of intestinal glands (5). […]

[1] = 1 mg/kg p.o. twice daily (Group B), day 10

Molecule | severity of disease parameters (10-Day DSS-induced colitis model in the mouse) | Disease Activity Index (DAI) (hBD2 0.05 mg/kg p.o., Day 10, mean ± SEM, n=10, P < 0.05 vs vehicle) | body weight vs control group (high dose of test item, day 10 (P<0.05)) | additional DAI score without change in body weight (only stool consistency and rectal bleeding) | histological damage score of proximal and distal colons (orally administered, day 10) | effect on disease activity index (DAI) vs vehicle (three dose levels (0.05, 0.5, 5 mg/kg) via the oral route) | histological damage in the proximal colon (twice daily, at 3 dose levels, p.o., day 10) | histological damage in the distal colon (twice daily, intermediate and high dose levels, p.o., day 10) | histological injury induced by DSS in the distal colon [1] | histological injury induced by DSS in the proximal colon [1] | body weight (group B, from day 2 until the end of the study) | effect on disease activity index (DAI) vs vehicle (reference item, 1 mg/kg p.o. twice daily)
Human beta defensin 2 (GIGDPVTCLKSGAICHPVFCPRRYKQIGTCGLPGTKCCKKP; mat_peptide; listed as Homo sapiens) [NZ39000] | significantly reduce | 8 ± 0.73 | significant increase | very significant anti-inflammatory activity | very significant reduction | significant inhibition | significant reduction | significant reduction | – | – | – | –
C[C@H]1C[C@@H]2[C@H]([C@@H](O)C[C@@]3(C)[C@H]2CC[C@]3(O)C(=O)COC(=O)CCC(=O)O)[C@@]2(C)C=CC(=O)C=C12 [Methylprednisolone 21-hemisuccinate, reference compound] | – | – | – | very significant anti-inflammatory activity | – | – | – | – | significantly reduced | significantly reduced | significant decrease | significant inhibition
